Laboratory results taken from publication PMC3436077 (DARU Journal of Pharmaceutical Sciences, 2011).

Key:
[1] = mice; cited from earlier work
[2] = Apical-to-basal transwell transport across MDCK II cell monolayer; conditions: dog, MDCK
MDCK II cells = test: as above
P-glycoprotein (PGP) = test: as above; conditions: dog, MDCK, M6G permeability in the presence of cyclosporine, MDCK II cells, cyclosporine (10 µM), PGP inhibitor

Structure (SMILES): CN1CC[C@]23c4c5ccc(O)c4O[C@H]2[C@@H](O[C@@H]2O[C@H](C(=O)O)[C@@H](O)[C@H](O)[C@H]2O)C=C[C@H]3[C@H]1C5 [M6G, Morphine-6-glucuronide]
- Change of M6G brain uptake in the presence of digoxin [1]: threefold reduction
- Papp at 100 min ([2]; M6G permeability in the presence of d-glucose, d-glucose 5µ M, MDCK II, P < 0.05): 2.06 ± 0.02 ×10⁻⁶ cm/s
- Papp at 100 min ([2]; M6G permeability in the presence of digoxin, digoxin 5µ M, MDCK II, P < 0.05): 2.64 ± 0.11 ×10⁻⁶ cm/s
- Papp at 100 min ([2]; M6G permeability in the presence of probenecid, probenecid 10µ M, MDCK II, P > 0.05): 2.95 ± 0.06 ×10⁻⁶ cm/s
- Papp at 100 min, 100 µg/ml ([2]; Permeability ± SD in the presence of morphine, M6G 100 µg/ml + morphine 61,820 ng/ml, MDCK II): 3.31 ± 0.14 ×10⁻⁶ cm/s
- Papp at 100 min, 100 µg/ml ([2]; Permeability ± SD, M6G 100 µg/ml alone, MDCK II): 2.92 ± 0.02 ×10⁻⁶ cm/s
- Papp at 100 min ([2]; Permeability, MDCK II cells, A→B, 100 min, M6G 100 µg/ml, sucrose 8,000,000 DPM/ml, N=4): 2.94 ± 0.03 ×10⁻⁶ cm/s
- M6G apical to basal movement relative to morphine (times lower) (MDCK II cells; morphine value from earlier paper): 10 times
- Morphine in apical and basal chambers (de-glucuronidation of M6G) (MDCK II cells; t= 100 min, sensitive morphine assay): not a significant or detectable morphine
- Papp at 100 min (P-glycoprotein (PGP)): 3.16 ± 0.01 ×10⁻⁶ cm/s
